pIC50: −log10 of the molar value.
Tests used:
[1] = target: T1, human-Arginase-1 (Homo sapiens, UniProt P05089); test: Urea production in CHOK cells stably transfected with human-Arginase-1; format: cell-based; conditions: IC50 class, 5 mM arginine, 24 hours, read-out: CHOK Cell
T1 construct: expressed in transfected cells; host or cells: CHOK cells
T1 sequence (P05089 1-322): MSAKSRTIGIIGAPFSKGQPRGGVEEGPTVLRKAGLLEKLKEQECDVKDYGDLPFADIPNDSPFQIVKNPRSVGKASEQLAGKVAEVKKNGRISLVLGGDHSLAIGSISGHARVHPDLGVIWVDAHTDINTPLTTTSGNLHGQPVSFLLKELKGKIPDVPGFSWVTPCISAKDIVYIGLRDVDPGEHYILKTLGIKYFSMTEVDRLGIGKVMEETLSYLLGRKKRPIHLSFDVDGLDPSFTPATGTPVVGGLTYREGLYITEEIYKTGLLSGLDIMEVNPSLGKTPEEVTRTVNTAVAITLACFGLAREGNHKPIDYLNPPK
Experimental: Table 3 also provides CHOK cell based IC50 values for illustrative arginase inhibitors. IC50 values were determined by measuring the production of urea in CHOK cells stably transfected with human-Arginase-1.
Briefly, CHOK cells were stably transfected with human-arginase-1. To determiner the IC50 values for compounds in accordance with the present invention, parental CHOK cells and arginase-1 stably transfected cells were plated in a 96 well plate. Cells were plated using 200 μl of complete growth medium and incubated overnight at 37° C.
Media from each of the wells containing cells was first removed and growth media supplemented with arginine at a concentration of 5 mM was added to each well. The test compounds were dissolved in PBS buffer to the desired concentration and added to appropriate wells. The plate was then incubated at 37° C. for 24 hours. After 24 hours the plates were spun down at 3000 RPM for 5 min and 50 μl of the media were transferred to a new plate.
An aqueous solution of o-phthaldehyde, Brij, sulfuric acid, primaquine diphosphate and boric acid was added to each well and the plate was incubated for 10-15 minutes. The urea concentration in each well was determined by measuring the optical density at 520-530 nanometers using a standard curve. The IC50 values were calculated by measuring urea production at various concentrations of the inventive arginase inhibitors after subtracting the value related to the concentration of urea in control wells.

[2] = target: T2, arginase II (ARG II) (Homo sapiens, UniProt P78540); test: Inhibition of arginase II, spectrophotometric urea assay at 530 nm
T2 sequence (P78540 23-354): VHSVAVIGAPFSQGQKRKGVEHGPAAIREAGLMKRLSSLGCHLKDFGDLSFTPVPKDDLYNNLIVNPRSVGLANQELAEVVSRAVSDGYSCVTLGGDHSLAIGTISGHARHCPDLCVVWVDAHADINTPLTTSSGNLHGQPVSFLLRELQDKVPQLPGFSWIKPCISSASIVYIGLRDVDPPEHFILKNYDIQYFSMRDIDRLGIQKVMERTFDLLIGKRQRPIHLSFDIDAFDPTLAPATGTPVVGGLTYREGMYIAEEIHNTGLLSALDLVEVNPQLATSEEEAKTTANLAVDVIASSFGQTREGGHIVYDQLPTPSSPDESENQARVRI
Experimental: (§1) Inhibition of arginase I (ARG I) and arginase II (ARG II) by the inventive compounds is followed spectrophotometrically at 530 nm. […] Solutions of arginase I and II are prepared in 100 mM sodium phosphate buffer, pH 7.4 containing 1 mg/ml of OVA to give an arginase stock solution at a final concentration of 100 ng/ml.
(§2) To each well of a 96-well microtiter plate is add 40 μl of enzyme, 10 μl of an inventive compound and 10 μl of enzyme substrate (L-arginine+ manganese sulfate). For wells that are used as positive controls, only the enzyme and its substrate are added, while wells used as negative controls contain only manganese sulfate.
(§3) After incubating the microtiter plate at 37° C. for 60 minutes, 150 μl of a urea reagent obtained by combining equal proportions (1:1) of reagents A and B is added to each well of the microtiter plate to stop the reaction. The urea reagent is made just before use by combining Reagent A (10 mM o-phthaldialdehyde, and 0.4% polyoxyethylene (23) lauryl ether (w/v) in 1.8 M sulfuric acid) with Reagent B (1.3 mM primaquine diphosphate, 0.4% polyoxyethylene (23) lauryl ether (w/v), 130 mM boric acid in 3.6 M sulfuric acid). After quenching the reaction mixture, the microtiter plate is allowed to stand for an additional 10 minutes at room temperature to allow color development. […] The normalized OD is then used to generate a dose-response curve by plotting the normalized OD values against log [concentration] and using regression analysis to compute the IC50 values.

[3] = target: T3, human arginase I (ARG I) (Homo sapiens, UniProt P05089); test: Inhibition of arginase I, spectrophotometric urea assay at 530 nm
T3 sequence (P05089 1-322): T1 sequence (P05089 1-322)
Experimental: as §1, §2, §3

| SMILES | pIC50 [1] | pIC50 [2] | pIC50 [3] |
| --- | --- | --- | --- |
| NC(CCCCB(O)O)(C(=O)O)[C@H]1C[C@@H](NC2CCC(c3ccccc3)CC2)C1 (mixture of isomers) [Example 47, (S)-2-amino-6-borono-2-((1s,3R)-3-(4-phenylcyclohexylamino)cyclobutyl)hexanoic acid] | 4.00 to 4.59 | 7.60 to 10.00 | 7.00 to 7.59 |
| NC(CCCCB(O)O)(C(=O)O)[C@H]1C[C@@H](NCc2cccc(-c3ccccc3)c2F)C1 (mixture of isomers) [Example 48, (S)-2-amino-6-borono-2-((1s,3R)-3-((2-fluorobiphenyl-3-yl)methylamino)cyclobutyl)hexanoic acid] | 4.00 to 4.59 | 7.60 to 10.00 | 7.00 to 7.59 |
| NC(CCCCB(O)O)(C(=O)O)[C@H]1C[C@@H](NCc2ccc(-c3ccc(Cl)cc3)c(F)c2F)C1 (mixture of isomers) [Example 50, (S)-2-amino-6-borono-2-((1s,3R)-3-((4′-chloro-2,3-difluorobiphenyl-4-yl)methylamino)cyclobutyl)hexanoic acid] | 4.60 to 6.00 | 7.00 to 7.59 | 7.60 to 10.00 |
| NC(CCCCB(O)O)(C(=O)O)[C@H]1C[C@@H](NCc2ccc(-c3ccc(Cl)cc3)c(F)c2)C1 (mixture of isomers) [Example 51, (S)-2-amino-6-borono-2-((1s,3R)-3-((4′-chloro-2-fluorobiphenyl-4-yl)methylamino)cyclobutyl)hexanoic acid] | 4.00 to 4.59 | 7.60 to 10.00 | 7.00 to 7.59 |
| NC(CCCCB(O)O)(C(=O)O)[C@H]1C[C@@H](NCC2CCN(c3ccc(C(=O)O)cc3)CC2)C1 (mixture of isomers) [Example 59, 4-(4-(((1R,3s)-3-((S)-1-amino-5-borono-1-carboxypentyl)cyclobutylamino)methyl)piperidin-1-yl)benzoic acid] | – | 7.00 to 7.59 | 7.00 to 7.59 |
| NC(CCCCB(O)O)(C(=O)O)[C@H]1C[C@H](N(Cc2ccccc2)Cc2ccccc2)C1 (relative stereo) [Example 28, (S)-2-amino-6-borono-2-((1r,3S)-3-(dibenzylamino)cyclobutyl)hexanoic acid] | – | < 5.82 | < 5.82 |
| NC(CCCCB(O)O)(C(=O)O)[C@H]1C[C@@H](NCCCc2ccccc2)C1 (stereo partly drawn) [Example 1, (S)-2-amino-6-borono-2-((1s,3R)-3-(3-phenylpropylamino)cyclobutyl) hexanoic acid] | – | 7.00 to 7.59 | – |
| NC(CCCCB(O)O)(C(=O)O)[C@H]1C[C@@H](NCCCc2cc(F)cc(Cl)c2)C1 (stereo partly drawn) [Example 2, (S)-2-amino-6-borono-2-((1s,3R)-3-(3-(3-chloro-5-fluorophenyl)propylamino)cyclobutyl)hexanoic acid] | – | 7.60 to 10.00 | 7.00 to 7.59 |
| NC(CCCCB(O)O)(C(=O)O)[C@H]1C[C@@H](NCCc2ccc(F)c(F)c2)C1 (stereo partly drawn) [Example 3, (S)-2-amino-6-borono-2-((1s,3R)-3-(3,4-difluorophenethylamino)cyclobutyl)hexanoic acid] | – | 7.00 to 7.59 | 7.00 to 7.59 |
| NC(CCCCB(O)O)(C(=O)O)[C@H]1C[C@@H](NCCc2ccc(Cl)cc2Cl)C1 (stereo partly drawn) [Example 4, (S)-2-amino-6-borono-2-((1s,3R)-3-(2,4-dichlorophenethylamino)cyclobutyl)hexanoic acid] | – | 7.00 to 7.59 | 7.00 to 7.59 |
| NC(CCCCB(O)O)(C(=O)O)[C@H]1C[C@@H](NCc2cccc(-c3ccccc3)c2)C1 (stereo partly drawn) [Example 7, (S)-2-amino-2-((1s,3R)-3-(biphenyl-3-ylmethylamino)cyclobutyl)-6-boronohexanoic acid] | – | 7.00 to 7.59 | 7.00 to 7.59 |
| NC(CCCCB(O)O)(C(=O)O)[C@H]1C[C@@H](NC[C@@H]2Cc3ccccc3CN2)C1 (stereo partly drawn) [Example 14, (S)-2-amino-6-borono-2-((1R,3R)-3-(((S)-1,2,3,4-tetrahydroisoquinolin-3-yl)methylamino)cyclobutyl)hexanoic acid] | – | 7.00 to 7.59 | 7.00 to 7.59 |
| NC(CCCCB(O)O)(C(=O)O)[C@H]1C[C@@H](NCc2ccc(O)cc2)C1 (stereo partly drawn) [Example 20, (S)-2-amino-6-borono-2-((1s,3R)-3-(4-hydroxybenzylamino)cyclobutyl)hexanoic acid] | – | 7.00 to 7.59 | 7.00 to 7.59 |
| NC(CCCCB(O)O)(C(=O)O)[C@H]1C[C@@H](N2Cc3ccccc3C2)C1 (stereo partly drawn) [Example 29, 2-amino-6-borono-2-((1s,3R)-3-(isoindolin-2-yl)cyclobutyl)hexanoic acid] | – | 6.30 to 7.00 | 6.30 to 7.00 |
| CNC(CCCCB(O)O)(CCN1CCc2c(Cl)cccc2C1)C(=O)O (stereo not shown) [Example 31, 6-borono-2-(2-(5-chloro-3,4-dihydroisoquinolin-2(1H)-yl)ethyl)-2-(methylamino)hexanoic acid] | – | 6.30 to 7.00 | 6.30 to 7.00 |
| CNC(CCCCB(O)O)(CCN1CCc2ccccc2C1)C(=O)O (stereo not shown) [Example 32, 6-borono-2-(2-(3,4-dihydroisoquinolin-2(1H)-yl)ethyl)-2-(methylamino)hexanoic acid] | – | 6.30 to 7.00 | 6.30 to 7.00 |
| CNC(CCCCB(O)O)(CCN1CCC(C)(C)CC1)C(=O)O (stereo not shown) [Example 34, 6-borono-2-(2-(4,4-dimethylpiperidin-1-yl)ethyl)-2-(methylamino)hexanoic acid] | – | 6.30 to 7.00 | 6.30 to 7.00 |
| CNC(CCCCB(O)O)(CCN1CCC(c2ccc(Cl)cc2)CC1)C(=O)O (stereo not shown) [Example 37, 6-borono-2-(2-(4-(4-chlorophenyl)piperidin-1-yl)ethyl)-2-(methylamino)hexanoic acid] | – | 6.30 to 7.00 | 6.30 to 7.00 |
| NC(CCCCB(O)O)(CCCN1CCCC1)C(=O)O (stereo not shown) [Example 38, 2-amino-6-borono-2-(3-(pyrrolidin-1-yl)propyl)hexanoic acid] | – | 6.30 to 7.00 | 6.30 to 7.00 |
| NC(CCCCB(O)O)(C(=O)O)[C@@H]1CC[C@H](NCc2ccc(-c3ccccc3)cc2)C1 (stereo partly shown) [Example 42] | – | 7.00 to 7.59 | 7.00 to 7.59 |
| NC(CCCCB(O)O)(C(=O)O)[C@H]1C[C@@H](NCCc2ccc(-c3ccccc3)cc2)C1 (stereo partly drawn) [Example 65, (S)-2-amino-2-((1s,3R)-3-(2-(biphenyl-4-yl)ethylamino)cyclobutyl)-6-boronohexanoic acid] | – | 7.60 to 10.00 | 7.00 to 7.59 |
| N[C@](CCCCB(O)O)(CCNC1Cc2ccccc2C1)C(=O)O [Example 66, (R)-2-amino-6-borono-2-(2-(2,3-dihydro-1H-inden-2-ylamino)ethyl)hexanoic acid] | – | 6.30 to 7.00 | 6.30 to 7.00 |
| CCCN(C)CC[C@](N)(CCCCB(O)O)C(=O)O [Example 69, (R)-2-amino-6-borono-2-(2-(methyl(propyl)amino)ethyl)hexanoic acid] | – | 6.30 to 7.00 | 6.30 to 7.00 |
| CC(C)NCC[C@](N)(CCCCB(O)O)C(=O)O [Example 70, (R)-2-amino-6-borono-2-(2-(isopropylamino)ethyl)hexanoic acid] | – | 6.30 to 7.00 | 7.00 to 7.59 |
| CC(C)CNCC[C@](N)(CCCCB(O)O)C(=O)O [Example 71, (R)-2-amino-6-borono-2-(2-(isobutylamino)ethyl)hexanoic acid] | – | 6.30 to 7.00 | 6.30 to 7.00 |
| N[C@](CCCCB(O)O)(CCN1Cc2ccccc2C1)C(=O)O [Example 72, (R)-2-amino-6-borono-2-(2-(isoindolin-2-yl)ethyl)hexanoic acid] | – | 5.82 to 6.30 | 6.30 to 7.00 |
| NC1(c2ccc(Cl)cc2)CC(C(N)(CCCCB(O)O)C(=O)O)C1 (stereo not shown) [Example 73, 2-amino-2-(3-amino-3-(4-chlorophenyl)cyclobutyl)-6-boronohexanoic acid] | – | 6.30 to 7.00 | 5.82 to 6.30 |
| NC1(Cc2ccc(Cl)cc2)CC(C(N)(CCCCB(O)O)C(=O)O)C1 (stereo not shown) [Example 74, 2-amino-2-(3-amino-3-(4-chlorobenzyl)cyclobutyl)-6-boronohexanoic acid] | – | 6.30 to 7.00 | 6.30 to 7.00 |
| CNC(CCCCB(O)O)(C(=O)O)[C@H]1C[C@@H](N)C1 (stereo partly drawn) [Example 75, (S)-2-((1s,3R)-3-aminocyclobutyl)-6-borono-2-(methylamino)hexanoic acid] | – | 6.30 to 7.00 | 6.30 to 7.00 |

Source: patent US9266908B2, “Inhibitors of arginase and their therapeutic applications” (MARS, INCORPORATED, priority 2011, dated 2016)
